Results published in patent publication US10376520B2, “Methods for the treatment of cardiovascular disorders” (Galapagos NV, priority 2015, dated 2019).

Tests used:
Assay type in all cases: in vivo, human
[1] = tested on: RA patients; test: [HDL] determination, Study 4 (RA patients, 4 weeks, add-on to MTX)
Description: Randomized, double-blind, placebo-controlled, multicenter, phase II study of Compound 1 (dosed as a [Compound 1:HCl:3H2O]) to compare four dose regimens versus placebo, in combination with methotrexate, administered for 4 weeks in the treatment of subjects with active rheumatoid arthritis who have an inadequate response to methotrexate alone.
(§1) Randomized double-blind, placebo-controlled add on study in subjects with active RA who have an inadequate response to MTX monotherapy, in combination with methotrexate, administered for 4 weeks in the treatment of subjects with active rheumatoid arthritis who have an inadequate response to methotrexate alone.
90 subjects randomized to one of 4 dose regimens of Compound 1 (dosed as a [Compound 1:HCl:3H2O]) or placebo, on top of their stable dose of MTX. Thus, each of the 4 different doses of Compound 1 (dosed as a [Compound 1:HCl:3H2O]) and placebo groups has 18 subjects.
(§2) Compound 1 (dosed as a [Compound 1:HCl:3H2O]) capsules administered orally in 30 mg, 75 mg, 150 mg, or 300 mg doses per day for 4 weeks.
This assay relies on a homogeneous enzymatic colorimetric test. In the presence of magnesium ions, dextran sulfate selectively forms water-soluble complexes with LDL, VLDL and chylomicrons which are resistant to PEG-modified enzymes.
The cholesterol concentration of [HDL]-cholesterol is determined enzymatically by cholesterol esterase and cholesterol oxidase coupled with PEG to the amino groups (approx. 40%).
In the presence of peroxidase, the hydrogen peroxide generated reacts with 4-amino-antipyrine and Sodium N-(2-hydroxy-3-sulfopropyl)-3,5-dimethoxyaniline (HSDA) to form a purple-blue dye. The color intensity of this dye is directly proportional to the cholesterol concentration and is measured photometrically.
Human serum and plasma samples [HDL] determination was done on a Roche/Hitachi Cobas c 701/702 system which automatically calculate the analyte concentration of each sample. Samples containing precipitates are centrifuged before performing the assay.

[2] = tested on: RA patients; test: Lipoprotein A (Lp(a)) level (Selectra autoanalyzer), Study 4; settings: for LpA level, 4 weeks CFB: 4 weeks change from baseline
Experimental: as §1, §2
Lipoprotein A (Lp(a)) were measured on the Selectra autoanalyzer (Sopachem BV, 44-RI Straat 33, 4051 AP Ochten, The Netherlands). All assays were commercially available from DiaSys Diagnostic Systems GmbH, Alte Strasse 9, 65558 Holzheim, Germany.

[3] = tested on: RA patients; test: Triglycerides level (Selectra autoanalyzer), Study 4; settings: for Triglycerides level, 4 weeks CFB: 4 weeks change from baseline
Experimental: as §1, §2
Triglycerides, [HDL] cholesterol, and plasma cholesterol were measured on the Selectra autoanalyzer (Sopachem BV, 44-RI Straat 33, 4051 AP Ochten, The Netherlands). All assays were commercially available from DiaSys Diagnostic Systems GmbH, Alte Strasse 9, 65558 Holzheim, Germany.

Q: Which “[HDL] levels” value ([1]; 30 mg q.d., Baseline) does the source give for `O=C(Nc1nc2cccc(-c3ccc(CN4CCS(=O)(=O)CC4)cc3)n2n1)C1CC1` [Compound 1, cyclopropanecarboxylic acid {5-[4-(1,1-dioxo-thiomorpholin-4-ylmethyl)-phenyl]-[1,2,4]triazolo[1,5-a]pyridin-2yl}-amide] here?
A: Its value is 1.40 mmol/L.

Q: And the “[HDL] levels” value ([1]; 30 mg q.d., week 1)?
A: Its value is 1.44 mmol/L.

Q: What about the “[HDL] levels” value ([1]; 30 mg q.d., week 2) of the same molecule?
A: Its value is 1.43 mmol/L.

Q: What about the “[HDL] levels” value ([1]; 30 mg q.d., week 3) of the same molecule?
A: Its value is 1.38 mmol/L.

Q: What about the “[HDL] levels” value ([1]; 30 mg q.d., week 4) of the same molecule?
A: Its value is 1.43 mmol/L.

Q: And the “[HDL] % Mean % variation vs baseline after 4 weeks” value (“[HDL] % Mean % variation” for short) ([1]; 30 mg qd)?
A: The value was 4%.

Q: And the “[HDL] levels” value ([1]; 75 mg q.d., Baseline)?
A: The value was 1.46 mmol/L.

Q: What about the “[HDL] levels” value ([1]; 75 mg q.d., week 1) of the same molecule?
A: Its value is 1.46 mmol/L.

Q: What about the “[HDL] levels” value ([1]; 75 mg q.d., week 2) of the same molecule?
A: The value was 1.50 mmol/L.

Q: What about the “[HDL] levels” value ([1]; 75 mg q.d., week 3) of the same molecule?
A: Its value is 1.56 mmol/L.

Q: What about the “[HDL] levels” value ([1]; 75 mg q.d., week 4) of the same molecule?
A: The value was 1.57 mmol/L.

Q: What about the “[HDL] % Mean % variation” value ([1]; 75 mg qd) of the same molecule?
A: The value was 11%.

Q: What about the “[HDL] levels” value ([1]; 150 mg q.d., Baseline) of the same molecule?
A: Its value is 1.46 mmol/L.

Q: What about the “[HDL] levels” value ([1]; 150 mg q.d., week 1) of the same molecule?
A: Its value is 1.45 mmol/L.

Q: And the “[HDL] levels” value ([1]; 150 mg q.d., week 2)?
A: The value was 1.47 mmol/L.

Q: What about the “[HDL] levels” value ([1]; 150 mg q.d., week 3) of the same molecule?
A: Its value is 1.55 mmol/L.

Q: And the “[HDL] levels” value ([1]; 150 mg q.d., week 4)?
A: Its value is 1.53 mmol/L.

Q: What about the “[HDL] % Mean % variation” value ([1]; 150 mg qd) of the same molecule?
A: The value was 4%.

Q: And the “[HDL] levels” value ([1]; 300 mg q.d., Baseline)?
A: The value was 1.36 mmol/L.

Q: And the “[HDL] levels” value ([1]; 300 mg q.d., week 1)?
A: The value was 1.55 mmol/L.

Q: And the “[HDL] levels” value ([1]; 300 mg q.d., week 2)?
A: The value was 1.73 mmol/L.

Q: And the “[HDL] levels” value ([1]; 300 mg q.d., week 3)?
A: The value was 1.75 mmol/L.

Q: And the “[HDL] levels” value ([1]; 300 mg q.d., week 4)?
A: The value was 1.84 mmol/L.

Q: What about the “[HDL] % Mean % variation” value ([1]; 300 mg qd) of the same molecule?
A: The value was 38%.

Q: And the “LpA level, 4 weeks CFB” value ([2]; 30 mg q.d.)?
A: Its value is 3.9%.

Q: And the LpA level, Baseline ([2]; 30 mg q.d.)?
A: Its LpA level, Baseline is 22.5 mg/dL.

Q: What about the LpA level, week 4 ([2]; 30 mg q.d.) of the same molecule?
A: The LpA level, week 4 was 25.9 mg/dL.

Q: What about the “LpA level, 4 weeks CFB” value ([2]; 75 mg q.d.) of the same molecule?
A: Its value is −3.7%.

Q: What about the LpA level, Baseline ([2]; 75 mg q.d.) of the same molecule?
A: Its LpA level, Baseline is 28.5 mg/dL.

Q: What about the LpA level, week 4 ([2]; 75 mg q.d.) of the same molecule?
A: The LpA level, week 4 was 23.6 mg/dL.

Q: And the “LpA level, 4 weeks CFB” value ([2]; 150 mg q.d.)?
A: The value was 7.0%.

Q: What about the LpA level, Baseline ([2]; 150 mg q.d.) of the same molecule?
A: Its LpA level, Baseline is 29.5 mg/dL.

Q: And the LpA level, week 4 ([2]; 150 mg q.d.)?
A: The LpA level, week 4 was 35 mg/dL.

Q: What about the “LpA level, 4 weeks CFB” value ([2]; 300 mg q.d.) of the same molecule?
A: The value was 4.4%.

Q: What about the LpA level, Baseline ([2]; 300 mg q.d.) of the same molecule?
A: Its LpA level, Baseline is 13.4 mg/dL.

Q: And the LpA level, week 4 ([2]; 300 mg q.d.)?
A: Its LpA level, week 4 is 10.1 mg/dL.

Q: And the “Triglycerides level, 4 weeks CFB” value ([3]; 30 mg q.d.)?
A: Its value is 51.7%.

Q: And the Triglycerides level, Baseline ([3]; 30 mg q.d.)?
A: The Triglycerides level, Baseline was 1.2 mM.

Q: And the Triglycerides level, week 4 ([3]; 30 mg q.d.)?
A: The Triglycerides level, week 4 was 1.7 mM.

Q: What about the “Triglycerides level, 4 weeks CFB” value ([3]; 75 mg q.d.) of the same molecule?
A: The value was 6.6%.

Q: What about the Triglycerides level, Baseline ([3]; 75 mg q.d.) of the same molecule?
A: The Triglycerides level, Baseline was 1 mM.

Q: And the Triglycerides level, week 4 ([3]; 75 mg q.d.)?
A: The Triglycerides level, week 4 was 1.1 mM.

Q: What about the “Triglycerides level, 4 weeks CFB” value ([3]; 150 mg q.d.) of the same molecule?
A: Its value is 93.6%.

Q: What about the Triglycerides level, Baseline ([3]; 150 mg q.d.) of the same molecule?
A: Its Triglycerides level, Baseline is 1.4 mM.

Q: What about the Triglycerides level, week 4 ([3]; 150 mg q.d.) of the same molecule?
A: The Triglycerides level, week 4 was 2.1 mM.

Q: And the “Triglycerides level, 4 weeks CFB” value ([3]; 300 mg q.d.)?
A: Its value is 23.3%.

Q: And the Triglycerides level, Baseline ([3]; 300 mg q.d.)?
A: Its Triglycerides level, Baseline is 1.3 mM.

Q: What about the Triglycerides level, week 4 ([3]; 300 mg q.d.) of the same molecule?
A: The Triglycerides level, week 4 was 1.4 mM.
